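A five-concentration, 48-hour dose response in 96-well plates underlies each endpoint, interpolated linearly between surrounding concentrations. GI50 = concentration required for 50% inhibition of growth.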 Calls of active or inactive are those of the source. Rule as the data show it: active = GI50 up to about 1.1 µM and inactive = higher.
Legend:
Assay in all cases: NCI-60 cell line screen, 48 h
OVCAR-4 = test system: OVCAR-4
U-251 = test system: U-251
RPMI-8226 = test system: RPMI-8226
OVCAR-8 = test system: OVCAR-8
786-0 = test system: 786-0
M14 = test system: M14
HT-29 = test system: HT-29
HCC 2998 = test system: HCC 2998
SK-MEL-2 = test system: SK-MEL-2
SW-620 = test system: SW-620
SNB-19 = test system: SNB-19
RXF 393 = test system: RXF 393
LOX IMVI = test system: LOX IMVI
NCI-H522 = test system: NCI-H522
HCT-15 = test system: HCT-15
MDA-MB-435 = test system: MDA-MB-435
IGROV-1 = test system: IGROV-1
SF-268 = test system: SF-268
Hs-578T = test system: Hs-578T
MDA-MB-231 = test system: MDA-MB-231

SMILES	GI50 (OVCAR-4)	GI50 (U-251)	GI50 (RPMI-8226)	GI50 (OVCAR-8)	GI50 (786-0)	GI50 (M14)	GI50 (HT-29)	GI50 (HCC 2998)	GI50 (SK-MEL-2)	GI50 (SW-620)	GI50 (SNB-19)	GI50 (RXF 393)	GI50 (LOX IMVI)	GI50 (NCI-H522)	GI50 (HCT-15) [µM]	GI50 (MDA-MB-435)	GI50 (IGROV-1)	GI50 (SF-268)	GI50 (Hs-578T)	GI50 (MDA-MB-231)
CN(C)c1ccc(/C=N/c2ccc(-c3nc4ccccc4s3)cc2)cc1	58.7 µM (inactive)	29.2 µM (inactive)	25.6 µM (inactive)	39.5 µM (inactive)	20.2 µM (inactive)	41.1 µM (inactive)	32.5 µM (inactive)	20.8 µM (inactive)	22.9 µM (inactive)	22.9 µM (inactive)	57.9 µM (inactive)	17.9 µM (inactive)	33.3 µM (inactive)	18.1 µM (inactive)	32.1	33.8 µM (inactive)	36.2 µM (inactive)	–	–	–
CSc1nc2[nH]c(=O)c(C)nc2c(=O)[nH]1	> 100 µM (inactive)	> 100 µM (inactive)	> 100 µM (inactive)	> 100 µM (inactive)	> 100 µM (inactive)	> 100 µM (inactive)	> 100 µM (inactive)	> 100 µM (inactive)	> 100 µM (inactive)	> 100 µM (inactive)	> 100 µM (inactive)	> 100 µM (inactive)	> 100 µM (inactive)	> 100 µM (inactive)	> 100	–	> 100 µM (inactive)	> 100 µM (inactive)	–	–
CCOC(=O)CCn1cnc(N)n1	> 100 µM (inactive)	> 100 µM (inactive)	> 100 µM (inactive)	> 100 µM (inactive)	> 100 µM (inactive)	> 100 µM (inactive)	> 100 µM (inactive)	> 100 µM (inactive)	> 100 µM (inactive)	> 100 µM (inactive)	> 100 µM (inactive)	> 100 µM (inactive)	> 100 µM (inactive)	> 100 µM (inactive)	> 100	–	> 100 µM (inactive)	–	–	–
CCOc1c(Br)cc(Br)cc1C=C(C#N)C#N	> 10 µM (inactive)	3.52 µM (inactive)	0.942 µM (active)	3.42 µM (inactive)	7.01 µM (inactive)	–	> 10 µM (inactive)	> 10 µM (inactive)	> 10 µM (inactive)	2.23 µM (inactive)	5.73 µM (inactive)	> 10 µM (inactive)	1.66 µM (inactive)	–	2.96	4.18 µM (inactive)	4.29 µM (inactive)	5.82 µM (inactive)	3.67 µM (inactive)	–
N#CC1(C#N)NC(c2cccnc2)C(C#N)(C#N)NC1c1cccnc1 (stereo not drawn)	> 100 µM (inactive)	> 100 µM (inactive)	> 100 µM (inactive)	> 100 µM (inactive)	> 100 µM (inactive)	> 100 µM (inactive)	> 100 µM (inactive)	> 100 µM (inactive)	> 100 µM (inactive)	> 100 µM (inactive)	–	28.1 µM (inactive)	> 100 µM (inactive)	–	> 100	> 100 µM (inactive)	> 100 µM (inactive)	> 100 µM (inactive)	–	> 100 µM (inactive)
Cc1cc2c(-c3ccccc3)cc(=O)[nH]c2cc1N	> 100 µM (inactive)	> 100 µM (inactive)	> 100 µM (inactive)	> 100 µM (inactive)	> 100 µM (inactive)	> 100 µM (inactive)	> 100 µM (inactive)	> 100 µM (inactive)	> 100 µM (inactive)	> 100 µM (inactive)	> 100 µM (inactive)	> 100 µM (inactive)	> 100 µM (inactive)	–	> 100	> 100 µM (inactive)	> 100 µM (inactive)	–	–	> 100 µM (inactive)
CNC(=O)CCCNC(=O)CCCCC(=O)N(C)C	> 100 µM (inactive)	> 100 µM (inactive)	> 100 µM (inactive)	> 100 µM (inactive)	> 100 µM (inactive)	> 100 µM (inactive)	> 100 µM (inactive)	–	> 100 µM (inactive)	> 100 µM (inactive)	> 100 µM (inactive)	> 100 µM (inactive)	–	> 100 µM (inactive)	–	> 100 µM (inactive)	–	> 100 µM (inactive)	–	> 100 µM (inactive)
CC(=O)NC(CCCCNCc1ccccc1)C(=O)NCc1ccccc1 (stereo not drawn)	> 100 µM (inactive)	> 100 µM (inactive)	> 100 µM (inactive)	> 100 µM (inactive)	> 100 µM (inactive)	> 100 µM (inactive)	> 100 µM (inactive)	> 100 µM (inactive)	> 100 µM (inactive)	> 100 µM (inactive)	> 100 µM (inactive)	> 100 µM (inactive)	> 100 µM (inactive)	> 100 µM (inactive)	> 100	–	> 100 µM (inactive)	> 100 µM (inactive)	–	–
COC(=O)C(=O)CC(=O)CCn1ncc(Cl)c(Cl)c1=O	4.62 µM (inactive)	9.23 µM (inactive)	12.8 µM (inactive)	13.3 µM (inactive)	21.7 µM (inactive)	14.7 µM (inactive)	11.5 µM (inactive)	7.45 µM (inactive)	18.1 µM (inactive)	8.36 µM (inactive)	18.5 µM (inactive)	20.2 µM (inactive)	7.16 µM (inactive)	0.57 µM (active)	4.14	–	17.1 µM (inactive)	11.3 µM (inactive)	–	–
CCOC(=O)N1C(=O)C2C3C=CC(C2C1=O)C1C2C(=O)N(C(=O)OCC)C(=O)C2C31 (stereo not drawn)	> 100 µM (inactive)	> 68.1 µM (inactive)	> 100 µM (inactive)	> 100 µM (inactive)	> 83 µM (inactive)	> 100 µM (inactive)	> 100 µM (inactive)	> 100 µM (inactive)	> 100 µM (inactive)	> 41 µM (inactive)	> 100 µM (inactive)	> 100 µM (inactive)	> 46.6 µM (inactive)	> 100 µM (inactive)	> 47.2	–	> 100 µM (inactive)	> 81.3 µM (inactive)	–	–
O=c1[nH]c(=S)c2cc3c(=S)[nH]c(=O)n(CCO)c3nc2n1CCO	> 100 µM (inactive)	> 100 µM (inactive)	> 100 µM (inactive)	> 100 µM (inactive)	> 100 µM (inactive)	> 100 µM (inactive)	–	> 100 µM (inactive)	> 100 µM (inactive)	> 100 µM (inactive)	> 100 µM (inactive)	> 100 µM (inactive)	> 100 µM (inactive)	> 100 µM (inactive)	> 100	> 100 µM (inactive)	> 100 µM (inactive)	> 100 µM (inactive)	–	> 100 µM (inactive)
CCCc1n[nH]c(=O)n1N1C(=O)C=CC1=O	> 100 µM (inactive)	> 100 µM (inactive)	–	–	> 100 µM (inactive)	> 100 µM (inactive)	–	> 100 µM (inactive)	> 100 µM (inactive)	–	–	> 100 µM (inactive)	–	> 100 µM (inactive)	> 100	> 100 µM (inactive)	> 100 µM (inactive)	–	–	> 100 µM (inactive)
COc1cccc2c1[C@H]1OC(=O)NC1CCCCC2 (stereo partly drawn)	> 100 µM (inactive)	> 100 µM (inactive)	> 100 µM (inactive)	> 100 µM (inactive)	> 100 µM (inactive)	> 100 µM (inactive)	> 100 µM (inactive)	> 100 µM (inactive)	> 100 µM (inactive)	> 100 µM (inactive)	> 100 µM (inactive)	> 100 µM (inactive)	> 100 µM (inactive)	> 100 µM (inactive)	> 100	–	> 100 µM (inactive)	> 100 µM (inactive)	–	–
CC1(C)O[C@@H]([C@H](O)CO)[C@H](O)[C@@H](C2SCCCS2)O1	> 100 µM (inactive)	> 100 µM (inactive)	50.6 µM (inactive)	> 100 µM (inactive)	> 100 µM (inactive)	> 100 µM (inactive)	> 100 µM (inactive)	> 100 µM (inactive)	> 100 µM (inactive)	> 100 µM (inactive)	> 100 µM (inactive)	> 100 µM (inactive)	–	–	> 100	> 100 µM (inactive)	> 100 µM (inactive)	> 100 µM (inactive)	–	> 100 µM (inactive)
COc1ccc2c(CCNC(C)=O)c(C(C)=O)[nH]c2c1	> 100 µM (inactive)	> 100 µM (inactive)	> 100 µM (inactive)	> 100 µM (inactive)	> 100 µM (inactive)	> 100 µM (inactive)	> 100 µM (inactive)	> 100 µM (inactive)	> 100 µM (inactive)	> 100 µM (inactive)	> 100 µM (inactive)	> 100 µM (inactive)	> 100 µM (inactive)	> 100 µM (inactive)	> 100	–	> 100 µM (inactive)	48.4 µM (inactive)	–	–
C=CCOc1ccc(C2C(C(=O)OC)C(=O)CC(O)(c3ccccc3)C2C(=O)OC)cc1OC (stereo not drawn)	23.6 µM (inactive)	32 µM (inactive)	–	19.7 µM (inactive)	17 µM (inactive)	–	42.2 µM (inactive)	40.5 µM (inactive)	26.4 µM (inactive)	> 100 µM (inactive)	> 100 µM (inactive)	15.9 µM (inactive)	40.1 µM (inactive)	22.4 µM (inactive)	> 100	41.1 µM (inactive)	34.7 µM (inactive)	20.5 µM (inactive)	–	18.4 µM (inactive)
CC(=O)C(C)(C)CCC(C)(C)C(C)=O	> 100 µM (inactive)	> 100 µM (inactive)	–	> 100 µM (inactive)	> 100 µM (inactive)	> 100 µM (inactive)	> 100 µM (inactive)	> 100 µM (inactive)	> 100 µM (inactive)	> 100 µM (inactive)	> 100 µM (inactive)	< 0.01 µM (active)	> 100 µM (inactive)	> 100 µM (inactive)	> 100	–	> 100 µM (inactive)	> 100 µM (inactive)	> 100 µM (inactive)	> 100 µM (inactive)

Source: ChEMBL document CHEMBL1201862, “PubChem BioAssay data set” (2004)
